Results from ChEMBL document CHEMBL4680228 (Eur J Med Chem, 2020).
Calls of active or inactive are those of the source. No cut-off for these calls is given here.

Test system: SR
Assay: Antiproliferative activity against human SR cells assessed as reduction in cell growth
Assay type: functional, cell-based

SMILES | Activity | IC50
COc1cc(N2CCN(C(=O)CCOCCOCCOCCOCCC(=O)N[C@H](C(=O)N3C[C@H](O)C[C@H]3C(=O)NCc3ccc(-c4scnc4C)cc3)C(C)(C)C)CC2)ccc1Nc1ncc(Cl)c(Nc2ccccc2P(C)(C)=O)n1 | inactive | 
COc1cc(N2CCN(C(=O)CCCCCC(=O)N[C@H](C(=O)N3C[C@H](O)C[C@H]3C(=O)NCc3ccc(-c4scnc4C)cc3)C(C)(C)C)CC2)ccc1Nc1ncc(Cl)c(Nc2ccccc2P(C)(C)=O)n1 | Active | 
COc1cc(N2CCN(C(=O)CCC(=O)N[C@H](C(=O)N3C[C@H](O)C[C@H]3C(=O)NCc3ccc(-c4scnc4C)cc3)C(C)(C)C)CC2)ccc1Nc1ncc(Cl)c(Nc2ccccc2P(C)(C)=O)n1 | Active | 
COc1cc(N2CCC(NC(=O)CCCCC(=O)N[C@H](C(=O)N3C[C@H](O)C[C@H]3C(=O)NCc3ccc(-c4scnc4C)cc3)C(C)(C)C)CC2)ccc1Nc1ncc(Cl)c(Nc2ccccc2P(C)(C)=O)n1 | Active | 
COc1cc(N2CCC(N3CCN(C(=O)CCOCCOCCOCCC(=O)N[C@H](C(=O)N4C[C@H](O)C[C@H]4C(=O)NCc4ccc(-c5scnc5C)cc4)C(C)(C)C)CC3)CC2)ccc1Nc1ncc(Cl)c(Nc2ccccc2P(C)(C)=O)n1 | inactive | 
COc1cc(N2CCN(C(=O)CCCCC(=O)N[C@H](C(=O)N3C[C@H](O)C[C@H]3C(=O)NCc3ccc(-c4scnc4C)cc3)C(C)(C)C)CC2)ccc1Nc1ncc(Cl)c(Nc2ccccc2P(C)(C)=O)n1 | Active | 
COc1cc(N2CCC(N3CCN(C(=O)CCC(=O)N[C@H](C(=O)N4C[C@H](O)C[C@H]4C(=O)NCc4ccc(-c5scnc5C)cc4)C(C)(C)C)CC3)CC2)ccc1Nc1ncc(Cl)c(Nc2ccccc2P(C)(C)=O)n1 | Active | 
COc1cc(N2CCC(NC(=O)CCOCCOCCOCCOCCOCCC(=O)N[C@H](C(=O)N3C[C@H](O)C[C@H]3C(=O)NCc3ccc(-c4scnc4C)cc3)C(C)(C)C)CC2)ccc1Nc1ncc(Cl)c(Nc2ccccc2P(C)(C)=O)n1 | inactive | 
COc1cc(N2CCC(NC(=O)CCOCCOCCOCCC(=O)N[C@H](C(=O)N3C[C@H](O)C[C@H]3C(=O)NCc3ccc(-c4scnc4C)cc3)C(C)(C)C)CC2)ccc1Nc1ncc(Cl)c(Nc2ccccc2P(C)(C)=O)n1 | inactive | 
COc1cc(N2CCC(N3CCN(C(=O)CCOCCOCCOCCOCCC(=O)N[C@H](C(=O)N4C[C@H](O)C[C@H]4C(=O)NCc4ccc(-c5scnc5C)cc4)C(C)(C)C)CC3)CC2)ccc1Nc1ncc(Cl)c(Nc2ccccc2P(C)(C)=O)n1 | inactive | 
COc1cc(N2CCN(C(=O)CCOCCOCCOCCC(=O)N[C@H](C(=O)N3C[C@H](O)C[C@H]3C(=O)NCc3ccc(-c4scnc4C)cc3)C(C)(C)C)CC2)ccc1Nc1ncc(Cl)c(Nc2ccccc2P(C)(C)=O)n1 | inactive | 
COc1cc(N2CCNCC2)ccc1Nc1ncc(Cl)c(Nc2ccccc2P(C)(C)=O)n1 |  | 1.6 nM
COc1cc(N2CCC(N3CCN(C(=O)CCCCCC(=O)N[C@H](C(=O)N4C[C@H](O)C[C@H]4C(=O)NCc4ccc(-c5scnc5C)cc4)C(C)(C)C)CC3)CC2)ccc1Nc1ncc(Cl)c(Nc2ccccc2P(C)(C)=O)n1 | Active | 
COc1cc(N2CCN(C(=O)CCOCCOCCC(=O)N[C@H](C(=O)N3C[C@H](O)C[C@H]3C(=O)NCc3ccc(-c4scnc4C)cc3)C(C)(C)C)CC2)ccc1Nc1ncc(Cl)c(Nc2ccccc2P(C)(C)=O)n1 | inactive | 
COc1cc(N2CCN(C(=O)CCCC(=O)N[C@H](C(=O)N3C[C@H](O)C[C@H]3C(=O)NCc3ccc(-c4scnc4C)cc3)C(C)(C)C)CC2)ccc1Nc1ncc(Cl)c(Nc2ccccc2P(C)(C)=O)n1 | Active | 
COc1cc(N2CCC(NC(=O)CCCCCC(=O)N[C@H](C(=O)N3C[C@H](O)C[C@H]3C(=O)NCc3ccc(-c4scnc4C)cc3)C(C)(C)C)CC2)ccc1Nc1ncc(Cl)c(Nc2ccccc2P(C)(C)=O)n1 | Active | 
COc1cc(N2CCC(NC(=O)CCCC(=O)N[C@H](C(=O)N3C[C@H](O)C[C@H]3C(=O)NCc3ccc(-c4scnc4C)cc3)C(C)(C)C)CC2)ccc1Nc1ncc(Cl)c(Nc2ccccc2P(C)(C)=O)n1 | Active | 
